In patent US20140178898A1, “Method for Detecting Fat-Reducing Compounds” (National Central University, priority 2012, published 2014):

Legend:
Format in all cases: cell-based
[1] = system: glucose transporter 1 (GLUT1); assay: Western blotting of GLUT1 protein in adipocyte fractions; settings: EGCG in the presence and absence of IGF-I and IGF-II (FIGS. 5A, 6A)
Description: (§1) In the first step (S1), which provides a clone of adipocytes to be cultured on a culture dish, the adipocytes are 3T3-L1 adipocytes (American Type Culture Collection, Manassas, Va.). 3T3-L1 adipocytes are differentiated from 3T3-L1 preadipocytes. To obtain the adipocytes, preadipocytes are seeded at a number of 6×10^4 cells per well on a sterile 12-well plate. After 3 and 5 days of the plating, the medium is changed and replaced with a new medium containing a differentiation agent, respectively. Day 0 of differentiating cells is set at the day when the differentiating agent is added in the beginning. The medium is the Dulbecco's Modified Eagle's Medium (DMEM) containing 10% fetal bovine serum (FBS), 100 U/ml of penicillin, and 100 μg/ml streptomycin. […]
In the fourth step (S4), which collects the adipocytes for a detection of the expression level of at least one specific protein to be a reference value (i.e. an indicator) for reducing fat or for decreasing the glucose transport by the test compound, the specific proteins are glucose transporter 1 (GLUT1) and glucose transporter 4 (GLUT4) proteins (FIGS. 5 and 6). Levels of GLUT1 and GLUT4 protein expression in the total lysate, plasma membrane, and low-density microsome are analyzed by Western blotting. […]

[2] = system: glucose transporter 4 (GLUT4); assay: Western blotting of GLUT4 protein in adipocyte fractions (translocation); settings: for GLUT4 protein levels in the plasma membrane of adipocytes: IGF at 10 nM (FIGS. 5B, 6B); for GLUT4 expression levels in the low-density microsome: IGF at 10 nM (FIGS. 5C, 6C)
Description: (§2) In the first step (S1), which provides a clone of adipocytes to be cultured on a culture dish, the adipocytes are 3T3-L1 adipocytes (American Type Culture Collection, Manassas, Va.). 3T3-L1 adipocytes are differentiated from 3T3-L1 preadipocytes. To obtain the adipocytes, preadipocytes are seeded at a number of 6×10^4 cells per well on a sterile 12-well plate. After 3 and 5 days of the plating, the medium is changed and replaced with a new medium containing a differentiation agent, respectively. Day 0 of differentiating cells is set at the day when the differentiating agent is added in the beginning. The medium is the Dulbecco's Modified Eagle's Medium (DMEM) containing 10% fetal bovine serum (FBS), 100 U/ml of penicillin, and 100 μg/ml streptomycin. The differentiation agent is a cocktail solution containing a final concentration of 0.5 mM 3-Isobutyl-1-methylxanthine (IBMX), 5 μg/ml insulin, and 1 μM dexamethasone (DEX). After the 2-day incubation of the differentiation agent, the medium is changed to DMEM containing 10% FBS and 5 μg/ml insulin for an additional 4 days, and it is replaced with a new medium every 2 days. Day 6 differentiating cells are grown in DMEM containing 10% FBS for an additional 4 days. The medium is changed every 2 days. A total of 10 days is used for the process of differentiation to obtain the differentiated adipocytes and the cells are used for later experiments.
In the fourth step (S4), which collects the adipocytes for a detection of the expression level of at least one specific protein to be a reference value (i.e. an indicator) for reducing fat or for decreasing the glucose transport by the test compound, the specific proteins are glucose transporter 1 (GLUT1) and glucose transporter 4 (GLUT4) proteins (FIGS. 5 and 6). Levels of GLUT1 and GLUT4 protein expression in the total lysate, plasma membrane, and low-density microsome are analyzed by Western blotting. FIGS. 5A, 5B and 5C are presented when the culture medium is added with or without IGF-I; whereas, in FIGS. 6A, 6B and 6C, IGF-II is added to the culture medium.

3T3-L1 adipocytes [3] = assay: 2-deoxyglucose (2-DOG) uptake assay, IGF-II-stimulated glucose uptake
Description: as §1, with “beginning.” for “beginning. The medium is the Dulbecco's Modified Eagle's Medium (DMEM) containing 10% fetal bovine serum (FBS), 100 U/ml of penicillin, and 100 μg/ml streptomycin.”
The first example of the present invention is to show a use of 2-deoxyglucose uptake assay for detecting the transportation activity of glucose transporter protein in the adipocytes (FIG. 2). […] Then, 500 μl of RadioImmunoPrecipitation Assay (RIPA) buffer is added for fracturing the cells; 450 μl of cell solution is collected to evenly mix with 4 ml of scintillation liquid in a vial for a detection of radioactivity through a β-counter.
(§3) This invention provides a second example for clarifying the time course effects of EGCG on the IGF-stimulated glucose uptake in adipocytes (FIG. 3). […] After the incubation, the radioactivity is measured to indicate the transportation activity of glucose transporter protein in the adipocytes. […]

3T3-L1 adipocytes [4] = assay: 2-deoxyglucose (2-DOG) uptake assay, IGF-I-stimulated glucose uptake; settings: for IGF-I-stimulated increases in levels of adipocyte glucose uptake: then 10 nM IGF-I 10 minutes (FIG. 2A)
Description: as §2
(§4) The first example of the present invention is to show a use of 2-deoxyglucose uptake assay for detecting the transportation activity of glucose transporter protein in the adipocytes (FIG. 2). This purpose is also to clarify the effect of different concentrations of EGCG on the IGF-I-induced and IGF-II-induced glucose uptake. At the first, the different concentrations of EGCG are added into the adipocytes, such as 1, 2, 5, 10, 20 and 50 μM. The duration of the EGCG pretreatment is defined as a first time and it is 120 minutes, wherein the first time period can range from 30 to 120 minutes, but it is not limited thereto. Then, the exposed time of 10 minutes to 10 nM IGF-I or 10 nM IGF-II is defined as a second time, wherein the second time can be 5 minutes shorter or last for 30 minutes, but it is not limited thereto. […] Then, 500 μl of RadioImmunoPrecipitation Assay (RIPA) buffer is added for fracturing the cells; 450 μl of cell solution is collected to evenly mix with 4 ml of scintillation liquid in a vial for a detection of radioactivity through a β-counter.
as §3

3T3-L1 adipocytes [5] = assay: 2-deoxyglucose (2-DOG) uptake assay, EGCG alone
Description: as §2, §4
This invention provides a second example for clarifying the time course effects of EGCG on the IGF-stimulated glucose uptake in adipocytes (FIG. 3). […] After the incubation, the radioactivity is measured to indicate the transportation activity of glucose transporter protein in the adipocytes.

Substance: (−)-epigallocatechin gallate [EGCG]
- levels of GLUT1 protein in the total lysate of the adipocytes [1]: not altered
- levels of GLUT4 protein in the total lysate of the adipocytes ([2]; EGCG in the presence and absence of IGF-I and IGF-II (FIGS. 5A, 6A)): not altered
- IGF-increased levels of GLUT-4 protein in the plasma membrane ([2]; EGCG in the presence of IGF-I (FIG. 5B)): inhibits
- IGF-decreased levels of GLUT-4 protein in the low-density microsome ([2]; EGCG in the presence of IGF-I (FIG. 5C)): blocked
- IGF-increased levels of GLUT-4 protein in the plasma membrane ([2]; EGCG in the presence of IGF-II (FIG. 6B)): inhibits
- IGF-decreased levels of GLUT-4 protein in the low-density microsome ([2]; EGCG in the presence of IGF-II (FIG. 6C)): blocked
- translocation of GLUT4 from the cytosol to plasma membrane of the adipocytes induced by IGF treatment ([2]; FIGS. 5B, 5C, 6B and 6C): inhibited
- GLUT-4 protein levels in the low-density microsome ([2]; pretreatment with EGCG alone): does not change
- GLUT-4 protein levels in the plasma membrane ([2]; pretreatment with EGCG alone): does not change
- increase in the level of adipocyte glucose uptake induced by IGF-II (3T3-L1 adipocytes [3]; 0.5, 1, 2, and 4 hours after 20 μM EGCG pretreatment, 10 nM IGF-II): significantly reduced
- IGF-II-increased levels of glucose uptake in adipocytes (3T3-L1 adipocytes [3]; EGCG at 10, 20, and 50 μM, 2-hour pretreatment, 10 nM IGF-II (FIG. 2B)): suppress
- IGF-I-increased levels of adipocyte glucose uptake (3T3-L1 adipocytes [4]; 20 μM EGCG pretreatment for 0.5 hours, suppressive effect lasts for 4 hours, 10 nM IGF-I): inhibits
- IGF-I-increased level of adipocyte glucose uptake (3T3-L1 adipocytes [4]; 20 μM EGCG, 2-hour treatment, 10 nM IGF-I): decline to the corresponding level of glucose uptake to the control
- IGF-I-stimulated increases in levels of adipocyte glucose uptake (3T3-L1 adipocytes [4]; 2-hour pretreatment with 1, 2, or 5 μM EGCG): not
- IGF-I-stimulated increases in levels of adipocyte glucose uptake (3T3-L1 adipocytes [4]; 2-hour pretreatment with 10, 20, and 50 μM EGCG): suppresses
- level of adipocyte glucose uptake (3T3-L1 adipocytes [5]; 20 μM EGCG alone, 0.5, 1, or 2 hours (FIG. 3A)): not
- level of adipocyte glucose uptake (3T3-L1 adipocytes [5]; 20 μM EGCG alone, 4 hours (FIG. 3A)): significantly altered
- adipocyte glucose uptake (3T3-L1 adipocytes [5]; EGCG alone at 50 μM, 2 hours (FIG. 2A)): significantly decreased
- glucose uptake in the adipocytes (3T3-L1 adipocytes [5]; EGCG alone at 1, 2, 5, 10, and 20 μM, 2 hours of treatment (FIG. 2A)): does not alter

Substance: IGF-II: insulin-like growth factor II, added to adipocytes at 10 nM
- GLUT4 protein levels in the plasma membrane of adipocytes [2]: significantly increase
- GLUT4 expression levels in the low-density microsome [2]: decrease

Substance: IGF-I: insulin-like growth factor I, added to adipocytes at 10 nM
- GLUT4 protein levels in the plasma membrane of adipocytes [2]: significantly increase
- GLUT4 expression levels in the low-density microsome [2]: decrease
